# Experiments:
# HLA-DR4Dw4 = target: T1, HLA-DR4Dw4 (Homo sapiens, UniProt P01903+P01911, A100K/A169T/F76Y/I96L/K127E/L162R/M171V/N62H/P40V/Q125Y/R42H/S133A/S149N/S66Y/V115G/V209L/W38E); test: Test A: Purified HLA-DR peptide in vitro binding assay; details: inhibition of biotin-FHA 307-320 binding to purified HLA-DR4Dw4, 48 hours
# T1 construct: a cDNA encoding the β chain is cloned into the transfer vector pAcUW1; made in house; host or cells: Sf21 insect cells, double-recombinant baculovirus
# Excerpt: The utility of the peptides of the formula I, or a pharmaceutically acceptable salt thereof, may be assessed using a variety of standard tests and clinical studies, including those described in International Patent Application, Publication Nos. WO92/02543, WO93/05011 and WO95/07707 (or modifications thereof) and those described below. The peptides of formula I show significant activity in one or more of such tests or studies. Test A: Purified HLA-DR peptide in vitro binding assay. […]. […] The reaction is stopped by adding 2M sulphuric acid (10 μl per well) and the absorbance read at 450 nm to quantify the amount of peptide bound. The inhibitory activity of peptides is obtained by plotting absorbance against concentration. […]
# A cDNA encoding the sequence of the α polypeptide is cloned into the transfer vector pacYM1 [Matsuura, Y; Possce, RD; Overton, HA & Bishop, DHL (1987) J. Gen. […] The molecular genetic techniques used to construct the recombinant vectors are likewise readily available in the literature and are most fully described by Sambrook, J; Fritsch, EF & Maniatis T, (1989) [Molecular Cloning. […]
# BALB/C mice = test: Test C: Peptide stimulated DTH (delayed type hypersensitivity) in BALB/C mice; format: in vivo; details: ovalbumin DTH footpad swelling, 3-day osmotic mini-pumps
# Method: Test C: Peptide stimulated DTH (delayed type hypersensitivity) in BALB/C mice. […] Balb/c female mice (18-20 g), 5 per group, were immunised sub-cutaneously on the flank with 0.1 ml of an emulsion of ovalbumin (Sigma) (2 mg/ml in saline) mixed 1:1 (v/v) with complete Freunds adjuvant (Sigma). Seven days later footpad thickness was detemined using a dual caliper micrometer followed by a challenge in one hind footpad with a 30 μl sub-plantar injection of 1% heat-aggregated ovalbumin protein in saline. Twenty-four hours after antigen challenge, footpads were measured and the DTH response calculated as the percentage increase in footpad thickness in the injected footpad compared to contralateral control. Inhibitors were adminstered by 3-day osmotic mini-pumps (Alzet) implanted 24 hours prior to antigen challenge at doses ranging from 10 mg/kg/day to 0.1 μg/kg/day. The degree of inhibition was calculated by substracting the value for swelling of inhibitor treated footpads from that of the vehicle dosed controls, dividing by the control value and multiplying by 100%.
smiles,measurement,setting,value
"C[C@H](NC(=O)CN1CCCC(NC(=O)[C@@H](NC(=O)[C@H](C)NC(=O)[C@H](C)NC(=O)[C@H](C)NC(=O)[C@H](CCCNC(=N)N)NC(=O)CCCCc2ccccc2)[C@@H](C)O)C1=O)C(=O)Nc1ccc(CC(N)=O)cc1 (stereo partly drawn) [Example 1, Phv-Arg-Ala-Ala-Ala-Thr-II-Ala-Papa-NH2]",concentration showing significant binding to HLA-DR4Dw4 in Test A,HLA-DR4Dw4,≤ 0.1 µM
same,dose at which active in Test C,BALB/C mice,< 0.1 mg/kg/day

# Reference: patent US6184207A, “Inhibitors of peptide binding to MHC class II proteins” (Zeneca Limited, priority 1996, dated 2001)
